“Also recorded” adds a separate entry of the source.
Columns and labels:
[1] = test system: isolated islets; experiment: Heparan sulfate of islets isolated with free radical scavengers, Alcian blue staining; set-up: species or system mouse; details: combined: donors pretreated with BHA 120 mg/kg i.p. and islets isolated in presence of DMTU 50 mM
Source text: Transplantation of pancreatic islets is a well established therapeutic approach for treating Type I diabetes in animals and patients. However, recovery of fully functional islets is crucial if successful transplantation is to occur, irrespective of the problems associated with the recipient's immune response against the allograft. Based on the data described herein, preservation of intra-islet heparan sulfate during islet isolation is an important factor in ensuring that normal islet function is retained. […] In fact, following isotransplantation intra-islet heparan sulfate was still depleted 3 days after transplantation but returned to normal levels 7 days post-transplant (FIG. 13). […] These observations indicate that a combination of heparan sulfate and free radical scavengers could be used to preserve beta cell heparan sulfate during islet isolation.

[2] = test system: islet beta cells; experiment: Hydrogen peroxide (ROS)-induced beta cell death after culture, Sytox green uptake; assay type: cell-based, mouse; details: for Resistance to H2O2 (ROS): then 30% H2O2 for 5 min; for ability to retain beta cell viability and induce ROS resistance (in words): summary of Table 3
[3] = molecular target: T1, heparanase (Homo sapiens, UniProt Q9Y251); experiment: Heparanase inhibitory activity (Freeman and Parish 1997 assay); assay type: biochemical
T1 sequence (Q9Y251 158-543 limits assumed): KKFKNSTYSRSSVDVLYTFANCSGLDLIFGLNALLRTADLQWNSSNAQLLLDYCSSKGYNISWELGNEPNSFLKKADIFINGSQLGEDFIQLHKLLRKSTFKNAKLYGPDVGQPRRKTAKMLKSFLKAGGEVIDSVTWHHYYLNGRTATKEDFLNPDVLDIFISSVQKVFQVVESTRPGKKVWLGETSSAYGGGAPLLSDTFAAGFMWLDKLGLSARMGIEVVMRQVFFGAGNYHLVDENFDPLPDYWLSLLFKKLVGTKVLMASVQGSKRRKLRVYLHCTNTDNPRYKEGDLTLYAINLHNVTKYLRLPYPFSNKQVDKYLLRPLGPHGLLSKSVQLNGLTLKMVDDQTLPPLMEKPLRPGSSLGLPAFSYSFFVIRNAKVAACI
T1 sequence (Q9Y251 36-109 limits assumed): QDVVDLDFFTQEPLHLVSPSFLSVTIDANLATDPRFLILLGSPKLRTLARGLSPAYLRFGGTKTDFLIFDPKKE

[4] = test system: isolated BALB/c islet beta cells; experiment: Culture-induced death of isolated islet beta cells, Sytox green uptake by flow cytometry; assay type: cell-based, mouse; details: for Viability (%): untreated control 25-30% viability
Source text: (§1) Pancreatic islets were isolated from non-diabetic BALB/c mice and dissociated into a single cell suspension (>90% beta cells) by Dispase digestion. Following 2 days culture in standard tissue culture medium 62% of the beta cells were dead, based on uptake of the fluorescent DNA binding dye, Sytox green (FIG. 4, upper panels). […] In the presence of heparin the highly viable Calcein^+, PI^−population of beta cells was increased from 25% to 86%, the dead population. (Calcein^−, PI^+) reduced from 18% to 1% and the apoptotic population (Calcein^+, PI^+) improved from 52% to 6%. […] Table 1 provides a statistical analysis of the data showing that heparin, highly sulfated heparan sulfate (HS^hi) and PI-88 can protect mouse beta cells from culture-induced cell death.
(§2) The impact of heparin treatment on beta cell viability was also independent of the source of heparin (FIG. 8a) and, based on viable cell numbers, was not observed after 1 h but did occur after continuous culture with heparin for 1-2 days (FIG. 8b).

[5] = test system: islet beta cells; experiment: Intracellular insulin content of cultured beta cells; assay type: cell-based, mouse; details: 50 μg/ml, 2 days culture
Experimental: Comparison of the ability of HS^hi (50 μg/ml) and undersulfated HS(HS^lo, 50 μg/ml) to protect beta cells from 2 day culture-induced cell death, as shown by Sytox green uptake (upper panels). Lower panels depict the intracellular insulin content (green histograms) of the different preparations of cultured islet cells. Serum control (red histograms) and islet cell autofluorescence (black histograms) are also shown. 85-88% of the cultured islet cells were insulin^+ beta cells.
as §2

[6] = test system: islet beta cells; experiment: Insulin content of beta cells from islets isolated in the presence of heparin, flow cytometry; assay type: cell-based, mouse; details: heparin 50 μg/ml in the islet isolation medium
Experimental: This deficiency in intra-islet heparan sulfate persisted for at least 3 days after transplantation of the islets into histocompatible recipients, normal heparan sulfate levels only being regained 7 days post-transplantation (FIG. 13). Inclusion of heparin (50 μg/ml) in the islet isolation medium improved the insulin content of the islet beta cells 2-fold (FIG. 14).

[7] = test system: isolated BALB/c islet beta cells; experiment: Beta cell viability by Calcein-AM / propidium iodide staining, flow cytometry; assay type: cell-based, mouse; details: 50 μg/ml, 2 days culture
Source text: as §1

[8] = 50 μg/ml, 2 days culture, Sytox green

Compound | Resistance to H2O2 (ROS) ([2]; 50 μg/ml, 2 days culture) | Hpse inhibition [3] | Viability (%) [4, 8] [%] | further results
CNC(=S)NC [DMTU, dimethylthiourea] |  |  |  | Alcian blue staining for heparan sulfate of isolated islets (in words) [1]: increased
Chondroitin sulfate B | − | − | 46 | 
O-α-D-Glucopyranosyl-{(1→4)—O-α-D-glucopyranosyl}4-(1→4)-D-glucopyranose sulfate [Maltohexaose sulfate] | ++++ | +++ |  | ability to retain beta cell viability and induce ROS resistance (in words) ([2]; 50 μg/ml, 2 days culture): induced high beta cell viability and ROS resistance
Dextran sulfate | ++++ | ++ |  | ability to retain beta cell viability and induce ROS resistance (in words) ([2]; 50 μg/ml, 2 days culture): induced high beta cell viability and ROS resistance
Heparin |  |  |  | % viable after hydrogen peroxide treatment ([2]; 2 days culture with 50 μg/ml): 95%; % cell death following hydrogen peroxide treatment ([2]; heparin 50 μg/ml co-culture, freshly isolated cells 96.1% cell death): 5.0%; change in the insulin content of cultured beta cells (in words) [5]: little or no change; insulin content of islet beta cells, increase over control [6]: 2 fold; dead population (Calcein−, PI+) ([7]; control 18%): 1%; Calcein+, PI− population of beta cells (highly viable) ([7]; control 25%): 86%; apoptotic population (Calcein+, PI+) ([7]; control 52%): 6%; % beta cells Calceln − PI− (cell debris) ([7]; n = 3-5/group): 9.75 ± 1.9%; beta cell survival at 5 μg/ml (in words) ([4]; 5 μg/ml, 2 days culture): equally active; also recorded: preserved beta cell survival; protection from culture-induced cell death / beta cell survival (in words) [4, 8]: dramatically enhanced; % dead beta cells in culture (Sytox green) ([4]; heparin 50 μg/ml co-culture, controls 72.5% dead): 5.3%
Chondroitin sulfate C | − | − | 32 | 
Chondroitin sulfate D | − | ± | 32 | 
Chitosan | − | − | 30 | 
Bis-lactobionic acid amide (C12 link) | − |  |  | protection from peroxide (ROS)-induced cell death / induction of ROS resistance (in words) ([2]; 50 μg/ml, 2 days culture): essentially unable to induce islet beta cells to become ROS resistance; heparanase inhibition (in words) [3]: strong to very strong heparanase inhibitors
Maltopentaose sulfate | ++++ | +++ |  | ability to retain beta cell viability and induce ROS resistance (in words) ([2]; 50 μg/ml, 2 days culture): induced high beta cell viability and ROS resistance
Chondroitin sulfate A | − | ± | 50 | 
COc1ccc(O)c(C(C)(C)C)c1 [BHA, butylated hydroxyanisole] |  |  |  | Alcian blue staining for heparan sulfate of isolated islets (in words) [1]: increased

Source: patent US20130143840A1, “HEPARAN SULFATE REPLACEMENT THERAPY” (priority 2010, published 2013)
